# Test results from patent US20240246950A1, “Anilino-Pyrazole Derivatives, Compositions and Methods Thereof” (Ensem Therapeutics, priority 2022, published 2024).
# Legend:
# CDK1/cyclinB = CDK1/cyclinB (Homo sapiens, UniProt P06493); assay: In vitro kinase Caliper assay CDK1/cyclinB; format: biochemical; settings: enzyme 1 nM, 28° C. 30 min
# Procedure: (§1) In Vitro Kinase Caliper Assays: CDK2/CycA2, CDK2/CycE1, CDK1/cyclinB and GSK3β
# (§2) 1× Kinase buffer (50 mM HEPES pH 7.5, 10 mM MgCl2, 2 mM DTT and 0.01% Brij-35) The test compounds were prepared as 10 mM stock solution in 100% DMSO. The stock solution was then serially diluted 3-fold in 100% DMSO to 10 concentrations. 200 nL of each diluted compound solution was transferred to 384-well plate in duplicate. To each well, 10 μL of enzyme solution containing either CDK2/CycA2, CDK2/CycE1, CDK1/cyclinB, or GSK3β (final concentrations 10 nM, 3 nM, 1 nM, 1 nM respectively) in 1× Kinase buffer and the mix incubated at room temperature for 10 min. To initiate each reaction, 10 μL of peptide solution containing FAM-labelled peptide with final concentration at 3000 nM (FAM-P18 (5-FAM-QSPKKG-CONH2) for CDK2/CycA2, CDK2/CycE1, CDK1/cyclinB proteins, FAM-P15 (5-FAM-KRREILSRRPpSYR—COOH) for GSK30 protein) and ATP (final concentrations 30 μM, 77 μM or 20 μM, respectively) in 1× Kinase buffer was added to each well. All reactions were incubated at 28° C. for 30 min and then terminated by the addition of 30 μL stop buffer (100 mM HEPES pH 7.5, 50 mM EDTA, 0.2% Coating Reagent #3 and 0.015% Brij-35). All samples were then subjected to analysis using Caliper EZ Reader to read conversion values. IC50 values were then calculated by plotting dose-response curves and then using the XLfit application in Excel software.
# CDK2/CycA2 = CDK2/CycA2 (Homo sapiens, UniProt P24941); assay: In vitro kinase Caliper assay CDK2/CycA2; format: biochemical; settings: enzyme 10 nM, 28° C. 30 min, read-out: CDK2 cyclinA2 activity assay: IC50
# Procedure: as §1, §2
# CDK2/CycE1 = CDK2/CycE1 (Homo sapiens, UniProt P24941); assay: In vitro kinase Caliper assay CDK2/CycE1; format: biochemical; settings: enzyme 3 nM, 28° C. 30 min, read-out: CDK2 cyclinE1 activity assay: IC50
# Procedure: as §1, §2
# GSK3β = GSK3β (Homo sapiens, UniProt P49841); assay: In vitro kinase Caliper assay GSK3β; format: biochemical; settings: enzyme 1 nM, 28° C. 30 min
# GSK3β, sequence (P49841 whole entry, species assumed): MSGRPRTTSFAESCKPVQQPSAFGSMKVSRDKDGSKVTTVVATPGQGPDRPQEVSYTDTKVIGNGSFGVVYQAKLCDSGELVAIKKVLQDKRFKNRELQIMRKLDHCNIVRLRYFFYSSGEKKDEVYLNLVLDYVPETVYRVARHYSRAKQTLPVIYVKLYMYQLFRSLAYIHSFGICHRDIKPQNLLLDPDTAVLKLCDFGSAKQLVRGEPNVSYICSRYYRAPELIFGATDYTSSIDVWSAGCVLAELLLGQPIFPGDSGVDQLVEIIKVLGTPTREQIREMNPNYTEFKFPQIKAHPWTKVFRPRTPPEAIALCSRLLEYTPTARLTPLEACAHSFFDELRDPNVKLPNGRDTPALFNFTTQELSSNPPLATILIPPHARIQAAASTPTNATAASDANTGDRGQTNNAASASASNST
# Procedure: as §1, §2
# OVCAR3 = assay: Cell proliferation (CyQUANT) OVCAR3; format: cell-based; settings: Homo sapiens, OVCAR-3, 168 h, OVCAR3, 7 days, read-out: Anti-proliferation assay: IC50 (nM) [Cell Line: OVCAR3]
# Procedure, shortened: (§3)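 Cells were seeded at 2500, 1000 or 3000 cells/well, cultured overnight, then exposed to 3-fold compound dilutions for 7 days (final DMSO at most 0.01%). CyQUANT fluorescence was read at Ex/Em 480/520 nm; % inhibition computed relative to same-plate DMSO wells.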
# TOV21G = assay: Cell proliferation (CyQUANT) TOV21G; format: cell-based; settings: Homo sapiens, 168 h, 7 days, read-out: Anti-proliferation assay: IC50 (nM) [Cell Line: TOV21G]
# Procedure, shortened: as §3
# CDK1/cyclinB, sequence (P06493 whole entry): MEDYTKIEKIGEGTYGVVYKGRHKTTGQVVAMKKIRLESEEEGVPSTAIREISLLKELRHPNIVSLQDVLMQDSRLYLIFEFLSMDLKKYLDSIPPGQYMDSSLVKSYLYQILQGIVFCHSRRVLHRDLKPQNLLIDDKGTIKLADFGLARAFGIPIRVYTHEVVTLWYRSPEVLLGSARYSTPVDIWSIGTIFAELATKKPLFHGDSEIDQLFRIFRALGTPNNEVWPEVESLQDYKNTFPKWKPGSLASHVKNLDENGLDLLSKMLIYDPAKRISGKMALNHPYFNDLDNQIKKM
# CDK1/cyclinB, sequence (P14635 whole entry partner): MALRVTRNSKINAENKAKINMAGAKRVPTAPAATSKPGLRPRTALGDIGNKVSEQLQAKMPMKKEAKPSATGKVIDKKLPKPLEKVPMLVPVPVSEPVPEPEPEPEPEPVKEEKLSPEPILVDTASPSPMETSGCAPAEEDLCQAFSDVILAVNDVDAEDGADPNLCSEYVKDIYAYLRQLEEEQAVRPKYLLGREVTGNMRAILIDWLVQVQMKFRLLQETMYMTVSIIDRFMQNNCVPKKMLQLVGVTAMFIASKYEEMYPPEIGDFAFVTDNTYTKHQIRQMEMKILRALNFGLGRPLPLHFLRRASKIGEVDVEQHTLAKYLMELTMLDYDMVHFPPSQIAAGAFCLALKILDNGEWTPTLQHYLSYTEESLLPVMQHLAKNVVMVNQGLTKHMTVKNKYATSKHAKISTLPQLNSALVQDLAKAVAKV
Structure (SMILES),IC50 (CDK1/cyclinB) [nM],IC50 (CDK2/CycA2) [nM],IC50 (CDK2/CycE1) [nM],IC50 (GSK3β) [nM],IC50 (OVCAR3) [nM],IC50 (TOV21G) [nM]
"CC(C)NC(=O)O[C@@H]1CC[C@H](c2cc(Nc3ccc4c(=O)[nH]n(C)c4c3)n[nH]2)C1 [Example 1, (1R,3S)-3-(3-((1-methyl-3-oxo-2,3-dihydro-1H-indazol-6-yl)amino)-1H-pyrazol-5-yl)cyclopentyl isopropylcarbamate]",50 to 500,< 50,< 50,50 to 500,≥ 1000,≥ 1000
"CC(C)NC(=O)O[C@@H]1CC[C@H](c2cc(Nc3ccc4c(c3)CCNS4(=O)=O)n[nH]2)C1 [Example 2, (1R,3S)-3-(3-((1,1-dioxido-3,4-dihydro-2H-benzo[e][1,2]thiazin-6-yl)amino)-1H-pyrazol-5-yl)cyclopentyl isopropylcarbamate]",< 50,< 50,< 50,500 to 1000,≤ 500,≥ 1000
"CC(C)NC(=O)O[C@@H]1CC[C@H](c2cc(Nc3ccc4c(c3)CNS4(=O)=O)n[nH]2)C1 [Example 3, (1R,3S)-3-(3-((1,1-dioxido-2,3-dihydrobenzo[d]isothiazol-5-yl)amino)-1H-pyrazol-5-yl)cyclopentyl isopropylcarbamate]",< 50,< 50,< 50,500 to 1000,≤ 500,≥ 1000
